Measurements as given in ChEMBL document CHEMBL3862033 (J Med Chem, 2016).

The compounds below were run against T1, 5-hydroxytryptamine receptor 1A (Homo sapiens) (UniProt P08908) (assay: Displacement of [3H]WAY100635 from human 5-HT1AR expressed in CHO cell membranes at 10 uM incubated for 90 mins under dark condition by microbeta scintillation counting method relative to control). Conditions: not given.
T1 sequence (whole entry): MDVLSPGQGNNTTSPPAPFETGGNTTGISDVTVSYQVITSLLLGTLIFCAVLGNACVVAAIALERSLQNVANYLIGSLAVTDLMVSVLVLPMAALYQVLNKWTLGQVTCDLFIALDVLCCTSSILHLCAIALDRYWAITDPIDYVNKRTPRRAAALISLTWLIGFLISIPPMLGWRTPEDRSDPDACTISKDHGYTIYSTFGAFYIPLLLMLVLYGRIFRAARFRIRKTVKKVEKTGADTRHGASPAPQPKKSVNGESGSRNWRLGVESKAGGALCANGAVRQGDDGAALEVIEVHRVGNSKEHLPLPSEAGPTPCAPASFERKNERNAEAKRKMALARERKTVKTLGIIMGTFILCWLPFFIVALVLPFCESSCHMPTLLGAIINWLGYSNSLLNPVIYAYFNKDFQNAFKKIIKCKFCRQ
`CC[C@@H](Nc1nc(Cl)nc2c1ncn2[C@H]1[C@H](O)[C@H](O)[C@]2(CO)C[C@H]12)C1CC1` gave an inhibition of under 50%.
Work on `OC[C@@]12C[C@@H]1[C@@H](n1cnc3c(N[C@@H](C4CCC4)C4CC4)nc(Cl)nc31)[C@H](O)[C@@H]2O` yielded an inhibition of under 50%.

These compounds were tested against 5-hydroxytryptamine receptor 1B (Homo sapiens) (UniProt P28222) (assay: Displacement of [3H]5-CT from human 5-HT1BR expressed in HEK cell membranes at 10 uM incubated for 90 mins under dark condition by microbeta scintillation counting method relative to control). Conditions: HEK293.
5-hydroxytryptamine receptor 1B (Homo sapiens), sequence (P28222 whole entry): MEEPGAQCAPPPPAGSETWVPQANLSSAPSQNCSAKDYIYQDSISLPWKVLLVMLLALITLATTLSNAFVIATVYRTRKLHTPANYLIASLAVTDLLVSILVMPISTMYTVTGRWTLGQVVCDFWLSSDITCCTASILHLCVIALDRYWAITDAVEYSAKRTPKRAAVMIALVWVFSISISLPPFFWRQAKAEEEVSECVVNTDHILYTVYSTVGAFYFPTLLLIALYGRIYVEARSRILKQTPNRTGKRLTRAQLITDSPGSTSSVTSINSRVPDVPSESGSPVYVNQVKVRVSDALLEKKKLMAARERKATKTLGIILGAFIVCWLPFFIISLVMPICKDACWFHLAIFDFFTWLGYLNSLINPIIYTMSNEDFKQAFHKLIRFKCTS
With `CC[C@@H](Nc1nc(Cl)nc2c1ncn2[C@H]1[C@H](O)[C@H](O)[C@]2(CO)C[C@H]12)C1CC1` the inhibition was under 50%.
`OC[C@@]12C[C@@H]1[C@@H](n1cnc3c(N[C@@H](C4CCC4)C4CC4)nc(Cl)nc31)[C@H](O)[C@@H]2O` was tested, and the inhibition was under 50%.

What follows are compounds tested against 5-hydroxytryptamine receptor 1D (Homo sapiens) (UniProt P28221) (assay: Displacement of [3H]5-CT from human 5-HT1D receptor expressed in HEK-T cell membranes at 10 uM incubated for 90 mins under dark condition by microbeta scintillation counting method relative to control). Conditions: not given.
5-hydroxytryptamine receptor 1D (Homo sapiens), sequence (P28221 whole entry): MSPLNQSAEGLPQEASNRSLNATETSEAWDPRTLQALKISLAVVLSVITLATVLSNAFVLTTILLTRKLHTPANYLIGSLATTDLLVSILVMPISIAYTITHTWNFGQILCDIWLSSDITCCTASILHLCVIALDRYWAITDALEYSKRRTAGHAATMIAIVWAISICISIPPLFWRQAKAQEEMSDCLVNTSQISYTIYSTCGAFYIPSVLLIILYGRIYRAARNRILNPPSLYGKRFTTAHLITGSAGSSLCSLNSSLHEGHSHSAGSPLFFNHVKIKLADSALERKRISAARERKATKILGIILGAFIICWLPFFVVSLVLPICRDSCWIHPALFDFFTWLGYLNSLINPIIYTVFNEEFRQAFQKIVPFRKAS
`CC[C@@H](Nc1nc(Cl)nc2c1ncn2[C@H]1[C@H](O)[C@H](O)[C@]2(CO)C[C@H]12)C1CC1` was tested, and the inhibition was under 50%.
For `OC[C@@]12C[C@@H]1[C@@H](n1cnc3c(N[C@@H](C4CCC4)C4CC4)nc(Cl)nc31)[C@H](O)[C@@H]2O`, the inhibition was under 50%.

The compounds below were run against 5-hydroxytryptamine receptor 1E (Homo sapiens) (UniProt P28566) (assay: Displacement of [3H]5-HT from human 5-HT1E receptor expressed in HEK cell membranes at 10 uM incubated for 90 mins under dark condition by microbeta scintillation counting method relative to control). Conditions: HEK293.
5-hydroxytryptamine receptor 1E (Homo sapiens), sequence (P28566 whole entry): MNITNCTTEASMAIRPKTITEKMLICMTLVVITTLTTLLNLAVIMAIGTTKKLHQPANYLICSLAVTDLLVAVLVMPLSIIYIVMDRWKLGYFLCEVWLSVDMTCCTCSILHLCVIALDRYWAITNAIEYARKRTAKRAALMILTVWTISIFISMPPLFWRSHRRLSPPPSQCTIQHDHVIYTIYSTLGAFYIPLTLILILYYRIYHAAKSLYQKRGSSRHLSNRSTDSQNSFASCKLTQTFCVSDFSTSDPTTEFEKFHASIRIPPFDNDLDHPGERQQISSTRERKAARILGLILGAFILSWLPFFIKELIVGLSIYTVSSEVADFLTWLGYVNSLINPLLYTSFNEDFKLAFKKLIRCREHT
`CC[C@@H](Nc1nc(Cl)nc2c1ncn2[C@H]1[C@H](O)[C@H](O)[C@]2(CO)C[C@H]12)C1CC1` showed an inhibition of under 50%.
With `OC[C@@]12C[C@@H]1[C@@H](n1cnc3c(N[C@@H](C4CCC4)C4CC4)nc(Cl)nc31)[C@H](O)[C@@H]2O` the inhibition was under 50%.

The compounds below were run against 5-hydroxytryptamine receptor 4 (Homo sapiens) (UniProt Q13639) (assay: Displacement of [3H]GR113808 from human 5-HT4 receptor at 10 uM incubated for 90 mins under dark condition by microbeta scintillation counting method relative to control). Conditions: not given.
5-hydroxytryptamine receptor 4 (Homo sapiens), sequence (Q13639 whole entry): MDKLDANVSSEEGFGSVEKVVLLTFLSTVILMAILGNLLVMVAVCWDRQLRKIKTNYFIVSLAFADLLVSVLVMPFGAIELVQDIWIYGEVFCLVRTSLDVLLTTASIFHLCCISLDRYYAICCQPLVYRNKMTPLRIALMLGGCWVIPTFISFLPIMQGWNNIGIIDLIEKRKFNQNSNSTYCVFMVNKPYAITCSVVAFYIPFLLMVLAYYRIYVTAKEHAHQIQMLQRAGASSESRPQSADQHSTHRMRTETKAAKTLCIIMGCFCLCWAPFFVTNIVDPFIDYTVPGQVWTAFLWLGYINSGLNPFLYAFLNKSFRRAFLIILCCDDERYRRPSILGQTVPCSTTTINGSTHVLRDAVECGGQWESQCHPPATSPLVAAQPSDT
`CC[C@@H](Nc1nc(Cl)nc2c1ncn2[C@H]1[C@H](O)[C@H](O)[C@]2(CO)C[C@H]12)C1CC1` showed an inhibition of under 50%.
Compound `OC[C@@]12C[C@@H]1[C@@H](n1cnc3c(N[C@@H](C4CCC4)C4CC4)nc(Cl)nc31)[C@H](O)[C@@H]2O` has an inhibition of under 50%.

The compounds below were run against 5-hydroxytryptamine receptor 6 (Homo sapiens) (UniProt P50406) (assay: Displacement of [3H]LSD from human 5-HT6 receptor expressed in HEK cell membranes at 10 uM incubated for 90 mins under dark condition by microbeta scintillation counting method relative to control). Conditions: HEK293.
5-hydroxytryptamine receptor 6 (Homo sapiens), sequence (P50406 whole entry): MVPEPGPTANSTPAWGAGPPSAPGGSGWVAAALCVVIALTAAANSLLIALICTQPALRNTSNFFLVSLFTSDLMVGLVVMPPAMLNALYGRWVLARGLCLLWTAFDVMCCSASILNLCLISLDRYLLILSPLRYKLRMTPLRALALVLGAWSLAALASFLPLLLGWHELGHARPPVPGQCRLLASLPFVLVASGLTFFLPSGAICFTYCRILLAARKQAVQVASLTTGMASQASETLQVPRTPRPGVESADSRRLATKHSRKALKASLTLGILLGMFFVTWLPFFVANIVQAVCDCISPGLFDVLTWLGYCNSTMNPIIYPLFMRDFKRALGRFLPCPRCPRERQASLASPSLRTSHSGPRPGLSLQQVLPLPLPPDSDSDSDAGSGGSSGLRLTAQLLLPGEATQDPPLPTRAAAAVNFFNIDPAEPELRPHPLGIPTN
For `CC[C@@H](Nc1nc(Cl)nc2c1ncn2[C@H]1[C@H](O)[C@H](O)[C@]2(CO)C[C@H]12)C1CC1`, the inhibition was under 50%.
`OC[C@@]12C[C@@H]1[C@@H](n1cnc3c(N[C@@H](C4CCC4)C4CC4)nc(Cl)nc31)[C@H](O)[C@@H]2O` showed an inhibition of under 50%.

What follows are compounds tested against 5-hydroxytryptamine receptor 7 (Homo sapiens) (UniProt P34969) (assay: Displacement of [3H]LSD from human 5-HT7A receptor expressed in HEK cell membranes at 10 uM incubated for 90 mins under dark condition by microbeta scintillation counting method relative to control). Conditions: HEK293.
5-hydroxytryptamine receptor 7 (Homo sapiens), sequence (P34969 whole entry): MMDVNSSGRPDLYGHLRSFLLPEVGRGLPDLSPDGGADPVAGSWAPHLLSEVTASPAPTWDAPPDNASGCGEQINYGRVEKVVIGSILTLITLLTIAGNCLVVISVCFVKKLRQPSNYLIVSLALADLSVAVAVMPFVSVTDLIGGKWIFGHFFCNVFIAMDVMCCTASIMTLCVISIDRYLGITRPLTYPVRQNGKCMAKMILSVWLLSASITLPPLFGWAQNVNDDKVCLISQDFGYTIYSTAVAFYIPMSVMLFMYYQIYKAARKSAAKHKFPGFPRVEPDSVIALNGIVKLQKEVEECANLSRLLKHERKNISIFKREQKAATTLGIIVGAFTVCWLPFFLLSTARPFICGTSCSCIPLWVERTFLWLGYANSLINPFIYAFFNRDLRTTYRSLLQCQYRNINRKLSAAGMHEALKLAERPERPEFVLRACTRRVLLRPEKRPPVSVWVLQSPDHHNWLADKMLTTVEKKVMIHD
For `CC[C@@H](Nc1nc(Cl)nc2c1ncn2[C@H]1[C@H](O)[C@H](O)[C@]2(CO)C[C@H]12)C1CC1`, the inhibition was under 50%.
In the case of `OC[C@@]12C[C@@H]1[C@@H](n1cnc3c(N[C@@H](C4CCC4)C4CC4)nc(Cl)nc31)[C@H](O)[C@@H]2O`, the inhibition is reported as under 50%.

These compounds were tested against T2, 5-hydroxytryptamine receptor 3A (Homo sapiens) (UniProt P46098) (assay: Displacement of [3H]GR65630 from human 5-HT3 receptor expressed in HEK-T cell membranes at 10 uM incubated for 90 mins under dark condition by microbeta scintillation counting method relative to control). Conditions: not given.
T2 sequence (whole entry): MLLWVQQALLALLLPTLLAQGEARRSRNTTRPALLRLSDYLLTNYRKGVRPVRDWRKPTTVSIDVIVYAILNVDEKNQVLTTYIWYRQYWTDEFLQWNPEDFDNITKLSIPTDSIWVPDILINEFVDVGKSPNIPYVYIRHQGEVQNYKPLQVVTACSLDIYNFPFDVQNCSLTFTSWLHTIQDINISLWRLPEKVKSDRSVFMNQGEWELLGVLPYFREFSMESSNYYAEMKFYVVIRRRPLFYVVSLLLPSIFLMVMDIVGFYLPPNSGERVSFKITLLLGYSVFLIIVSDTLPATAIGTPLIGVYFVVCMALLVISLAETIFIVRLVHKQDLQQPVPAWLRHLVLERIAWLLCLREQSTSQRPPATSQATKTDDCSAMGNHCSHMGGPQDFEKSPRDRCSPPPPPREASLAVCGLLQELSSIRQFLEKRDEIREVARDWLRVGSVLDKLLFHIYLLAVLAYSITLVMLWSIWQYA
Compound `CC[C@@H](Nc1nc(Cl)nc2c1ncn2[C@H]1[C@H](O)[C@H](O)[C@]2(CO)C[C@H]12)C1CC1` has an inhibition of under 50%.
Compound `OC[C@@]12C[C@@H]1[C@@H](n1cnc3c(N[C@@H](C4CCC4)C4CC4)nc(Cl)nc31)[C@H](O)[C@@H]2O` has an inhibition of under 50%.

These compounds were tested against 5-hydroxytryptamine receptor 5A (Homo sapiens) (UniProt P47898) (assay: Displacement of [3H]LSD from human 5-HT5A receptor expressed in Flp-In-CHO cell membranes incubated for 90 mins under dark condition by microbeta scintillation counting method relative to control). Conditions: not given.
5-hydroxytryptamine receptor 5A (Homo sapiens), sequence (P47898 whole entry): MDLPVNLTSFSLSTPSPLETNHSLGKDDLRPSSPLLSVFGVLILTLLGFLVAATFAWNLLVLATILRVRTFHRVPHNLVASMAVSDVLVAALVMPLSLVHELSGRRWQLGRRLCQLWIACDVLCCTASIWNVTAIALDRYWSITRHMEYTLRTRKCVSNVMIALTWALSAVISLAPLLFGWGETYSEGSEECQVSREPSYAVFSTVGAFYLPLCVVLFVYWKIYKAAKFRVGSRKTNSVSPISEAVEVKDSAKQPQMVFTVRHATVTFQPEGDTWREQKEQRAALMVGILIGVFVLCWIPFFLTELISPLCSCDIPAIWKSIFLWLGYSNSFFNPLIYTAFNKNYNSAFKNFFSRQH
Design: concentration or dose not given beside the values
`CC[C@@H](Nc1nc(Cl)nc2c1ncn2[C@H]1[C@H](O)[C@H](O)[C@]2(CO)C[C@H]12)C1CC1` showed an inhibition of under 50%.
With `OC[C@@]12C[C@@H]1[C@@H](n1cnc3c(N[C@@H](C4CCC4)C4CC4)nc(Cl)nc31)[C@H](O)[C@@H]2O` the inhibition was under 50%.

The compounds below were run against T3, 5-hydroxytryptamine receptor 2A (Homo sapiens, UniProt P28223) (assay: Displacement of [3H]ketanserin from human 5-HT2A receptor expressed in HEK-T cell membranes at 10 uM incubated for 90 mins under dark condition by microbeta scintillation counting method relative to control). Conditions: not given.
T3 sequence (P28223 whole entry): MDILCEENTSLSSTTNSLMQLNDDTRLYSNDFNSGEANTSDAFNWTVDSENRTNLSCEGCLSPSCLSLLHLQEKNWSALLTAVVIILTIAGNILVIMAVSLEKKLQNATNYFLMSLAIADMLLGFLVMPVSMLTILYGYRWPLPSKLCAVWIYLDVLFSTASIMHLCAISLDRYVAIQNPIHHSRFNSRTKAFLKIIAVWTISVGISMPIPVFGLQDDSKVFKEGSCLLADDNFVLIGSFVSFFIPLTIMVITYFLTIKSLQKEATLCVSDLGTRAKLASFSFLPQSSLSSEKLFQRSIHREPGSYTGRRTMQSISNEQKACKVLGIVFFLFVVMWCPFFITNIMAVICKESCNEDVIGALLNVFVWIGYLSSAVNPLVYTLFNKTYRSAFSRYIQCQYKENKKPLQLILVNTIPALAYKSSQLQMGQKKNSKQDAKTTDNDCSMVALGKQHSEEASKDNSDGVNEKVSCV
With `CC[C@@H](Nc1nc(Cl)nc2c1ncn2[C@H]1[C@H](O)[C@H](O)[C@]2(CO)C[C@H]12)C1CC1` the inhibition was under 10%.
`OC[C@@]12C[C@@H]1[C@@H](n1cnc3c(N[C@@H](C4CCC4)C4CC4)nc(Cl)nc31)[C@H](O)[C@@H]2O` gave an inhibition of under 10%.

Each compound was assayed against T4, 5-hydroxytryptamine receptor 2C (Homo sapiens, UniProt P28335) (assay: Displacement of [3H]mesulergine from human 5-HT2CR expressed in Flp-In HEK cell membranes incubated for 90 mins under dark condition by microbeta scintillation counting method). Conditions: not given.
T4 sequence (P28335 whole entry): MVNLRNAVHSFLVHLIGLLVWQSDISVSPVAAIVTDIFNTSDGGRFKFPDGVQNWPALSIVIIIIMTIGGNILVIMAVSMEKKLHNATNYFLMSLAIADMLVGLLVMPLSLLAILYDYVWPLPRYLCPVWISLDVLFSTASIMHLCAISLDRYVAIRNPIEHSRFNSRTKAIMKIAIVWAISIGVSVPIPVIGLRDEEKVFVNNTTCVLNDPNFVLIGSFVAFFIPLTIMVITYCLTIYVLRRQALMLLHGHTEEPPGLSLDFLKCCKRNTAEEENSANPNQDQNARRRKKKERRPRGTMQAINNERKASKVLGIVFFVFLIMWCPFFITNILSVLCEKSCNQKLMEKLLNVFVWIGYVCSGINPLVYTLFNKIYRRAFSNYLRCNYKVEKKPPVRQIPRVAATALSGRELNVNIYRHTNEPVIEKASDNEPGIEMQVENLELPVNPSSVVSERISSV
Design: species or system HEK293
Work on `CC[C@@H](Nc1nc(Cl)nc2c1ncn2[C@H]1[C@H](O)[C@H](O)[C@]2(CO)C[C@H]12)C1CC1` yielded a Ki of 371 nM.
`OC[C@@]12C[C@@H]1[C@@H](n1cnc3c(N[C@@H](C4CCC4)C4CC4)nc(Cl)nc31)[C@H](O)[C@@H]2O` was tested, and the Ki was 270 nM.

What follows are compounds tested against T5, 5-hydroxytryptamine receptor 2C (Homo sapiens) (UniProt P28335) (assay: Displacement of [3H]mesulergine from human 5-HT2CR expressed in Flp-In HEK cell membranes at 10 uM incubated for 90 mins under dark condition by microbeta scintillation counting method relative to control). Conditions: HEK293.
T5 sequence (whole entry): T4 sequence (P28335 whole entry)
Compound `CC[C@@H](Nc1nc(Cl)nc2c1ncn2[C@H]1[C@H](O)[C@H](O)[C@]2(CO)C[C@H]12)C1CC1` has an inhibition of over 50%.
Work on `OC[C@@]12C[C@@H]1[C@@H](n1cnc3c(N[C@@H](C4CCC4)C4CC4)nc(Cl)nc31)[C@H](O)[C@@H]2O` yielded an inhibition of over 50%.

Each compound was assayed against T6, Adenosine receptor A1 (Homo sapiens, UniProt P30542) (assay: Displacement of [3H]N6-phenylisopropyladenosine from recombinant human A1AR expressed in CHO cell membranes after 60 mins by liquid scintillation counting method). Conditions: not given.
T6 sequence (P30542 whole entry): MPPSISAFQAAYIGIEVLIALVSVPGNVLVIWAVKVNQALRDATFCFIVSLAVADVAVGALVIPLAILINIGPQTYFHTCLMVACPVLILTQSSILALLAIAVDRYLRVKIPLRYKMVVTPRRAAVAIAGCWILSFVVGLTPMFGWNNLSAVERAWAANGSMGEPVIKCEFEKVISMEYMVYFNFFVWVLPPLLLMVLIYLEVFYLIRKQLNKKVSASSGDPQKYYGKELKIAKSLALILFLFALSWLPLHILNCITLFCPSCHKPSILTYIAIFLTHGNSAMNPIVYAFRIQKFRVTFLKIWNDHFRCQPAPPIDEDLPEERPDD
Work on `CC[C@@H](Nc1nc(Cl)nc2c1ncn2[C@H]1[C@H](O)[C@H](O)[C@]2(CO)C[C@H]12)C1CC1` yielded a Ki of 76 nM.
`OC[C@@]12C[C@@H]1[C@@H](n1cnc3c(N[C@@H](C4CCC4)C4CC4)nc(Cl)nc31)[C@H](O)[C@@H]2O` gave a Ki of 144 nM.

These compounds were tested against Adenosine receptor A2a (Homo sapiens, UniProt P29274) (assay: Displacement of [3 H]2-[p-(2-carboxyethyl)phenyl-ethylamino]-5'-N-ethylcarboxamidoadenosine from recombinant human adenosine receptor A2A expressed in HEK293 cell membranes after 60 mins by liquid scintillation counting method). Conditions: not given.
Adenosine receptor A2a, sequence (P29274 whole entry): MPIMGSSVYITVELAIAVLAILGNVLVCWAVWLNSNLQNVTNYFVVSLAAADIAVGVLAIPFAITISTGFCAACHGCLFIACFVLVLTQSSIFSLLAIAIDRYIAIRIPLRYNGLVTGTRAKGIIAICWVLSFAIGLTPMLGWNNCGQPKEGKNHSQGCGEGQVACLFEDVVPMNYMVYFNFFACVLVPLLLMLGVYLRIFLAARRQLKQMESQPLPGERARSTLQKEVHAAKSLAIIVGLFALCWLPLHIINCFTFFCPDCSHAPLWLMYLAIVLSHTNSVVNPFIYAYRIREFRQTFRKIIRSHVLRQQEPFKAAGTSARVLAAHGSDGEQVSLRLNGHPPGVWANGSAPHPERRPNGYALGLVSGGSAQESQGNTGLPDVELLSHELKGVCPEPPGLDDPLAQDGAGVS
With `CC[C@@H](Nc1nc(Cl)nc2c1ncn2[C@H]1[C@H](O)[C@H](O)[C@]2(CO)C[C@H]12)C1CC1` the Ki was 1880 nM.
`OC[C@@]12C[C@@H]1[C@@H](n1cnc3c(N[C@@H](C4CCC4)C4CC4)nc(Cl)nc31)[C@H](O)[C@@H]2O` showed a Ki of 3940 nM.

The compounds below were run against T3, 5-hydroxytryptamine receptor 2A (assay: Displacement of [3H]ketanserin from human 5-HT2A receptor expressed in HEK-T cell membranes incubated for 90 mins under dark condition by microbeta scintillation counting method). Conditions: not given.
Work on `CC[C@@H](Nc1nc(Cl)nc2c1ncn2[C@H]1[C@H](O)[C@H](O)[C@]2(CO)C[C@H]12)C1CC1` yielded a Ki of over 10000 nM.
Work on `OC[C@@]12C[C@@H]1[C@@H](n1cnc3c(N[C@@H](C4CCC4)C4CC4)nc(Cl)nc31)[C@H](O)[C@@H]2O` yielded a Ki of over 10000 nM.
